Data from ChEMBL document CHEMBL1135982, “New strategy for antedrug application: development of metalloproteinase inhibitors as antipsoriatic drugs” (J Med Chem, 2002).

What was measured:
[1] = target: Disintegrin and metalloproteinase domain-containing protein 17 (Homo sapiens, UniProt P78536); assay: Inhibition of heparin-binding epidermal growth factor (HB-EGF) shedding; format: functional
Homo sapiens = species on record: Homo sapiens; assay: Stability in human plasma and percentage of compound remained after 60 minutes was reported; format: functional, cell-free
Stromelysin-1 = Stromelysin-1 (Homo sapiens, UniProt P08254); assay: Inhibition of Matrix metalloprotease-3 (MMP-3)
[2] = target: Matrix metalloproteinase-9 (Homo sapiens, UniProt P14780); assay: Inhibition of Matrix metalloprotease-9 (MMP-9)
Interstitial collagenase = target: T1, Interstitial collagenase (Homo sapiens, UniProt P03956); assay: Inhibition of Matrix metalloprotease-1 (MMP-1)
T1 sequence (P03956 whole entry): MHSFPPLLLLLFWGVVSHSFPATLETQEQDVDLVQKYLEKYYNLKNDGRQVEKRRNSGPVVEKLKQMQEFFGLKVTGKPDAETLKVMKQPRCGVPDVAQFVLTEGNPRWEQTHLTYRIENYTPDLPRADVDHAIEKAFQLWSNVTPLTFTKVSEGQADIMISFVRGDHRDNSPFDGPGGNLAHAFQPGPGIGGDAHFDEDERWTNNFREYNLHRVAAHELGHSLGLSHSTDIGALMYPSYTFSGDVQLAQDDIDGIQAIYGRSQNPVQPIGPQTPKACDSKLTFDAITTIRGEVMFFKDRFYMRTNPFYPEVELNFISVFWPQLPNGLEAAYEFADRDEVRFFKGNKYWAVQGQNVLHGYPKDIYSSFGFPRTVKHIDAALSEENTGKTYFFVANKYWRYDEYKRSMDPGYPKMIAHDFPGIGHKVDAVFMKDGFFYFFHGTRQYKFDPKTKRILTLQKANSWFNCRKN

Amphiregulin = target: T2, Amphiregulin (Homo sapiens, UniProt P15514); assay: In vitro amphiregulin shedding inhibition; format: functional
T2 sequence (P15514 whole entry): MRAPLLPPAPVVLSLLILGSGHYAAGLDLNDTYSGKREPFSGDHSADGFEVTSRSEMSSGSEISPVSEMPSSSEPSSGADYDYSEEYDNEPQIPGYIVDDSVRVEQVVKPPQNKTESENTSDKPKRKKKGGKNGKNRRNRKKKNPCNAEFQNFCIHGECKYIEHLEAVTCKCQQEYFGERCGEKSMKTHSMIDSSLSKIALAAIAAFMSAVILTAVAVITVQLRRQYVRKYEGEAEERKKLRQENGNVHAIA

Mus musculus [3] = species on record: Mus musculus; assay: Activity against TPA-induced epidermal hyperplasia in mice, and epidermal thickness value was reported; format: functional; set-up: unit not given here
Mus musculus [4] = species on record: Mus musculus; assay: Activity against TPA-induced epidermal hyperplasia in mice, and percent decrease in TPA-induced hyperplasia was reported; format: functional

Sequence of Matrix metalloproteinase-9 (P14780 whole entry): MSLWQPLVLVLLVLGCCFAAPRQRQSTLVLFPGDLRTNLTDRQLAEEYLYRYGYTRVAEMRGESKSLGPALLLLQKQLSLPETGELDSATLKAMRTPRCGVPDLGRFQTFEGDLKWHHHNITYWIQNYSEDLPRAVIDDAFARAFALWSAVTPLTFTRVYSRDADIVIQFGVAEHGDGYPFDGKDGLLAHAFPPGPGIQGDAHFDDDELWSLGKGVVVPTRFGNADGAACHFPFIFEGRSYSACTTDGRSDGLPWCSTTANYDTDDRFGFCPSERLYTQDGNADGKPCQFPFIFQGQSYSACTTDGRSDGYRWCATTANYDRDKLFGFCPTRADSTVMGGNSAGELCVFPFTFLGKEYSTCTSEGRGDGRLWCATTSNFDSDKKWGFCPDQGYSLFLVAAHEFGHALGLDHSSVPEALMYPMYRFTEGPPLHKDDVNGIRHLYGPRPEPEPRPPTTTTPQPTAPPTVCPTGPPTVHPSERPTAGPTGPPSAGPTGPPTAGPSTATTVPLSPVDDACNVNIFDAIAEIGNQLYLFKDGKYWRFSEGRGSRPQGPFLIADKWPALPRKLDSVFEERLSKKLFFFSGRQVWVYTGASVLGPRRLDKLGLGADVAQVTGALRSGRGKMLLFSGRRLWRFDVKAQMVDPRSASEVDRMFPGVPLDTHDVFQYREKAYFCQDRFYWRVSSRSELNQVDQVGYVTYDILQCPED
Sequence of Disintegrin and metalloproteinase domain-containing protein 17 (P78536 whole entry, the tested form may be a part): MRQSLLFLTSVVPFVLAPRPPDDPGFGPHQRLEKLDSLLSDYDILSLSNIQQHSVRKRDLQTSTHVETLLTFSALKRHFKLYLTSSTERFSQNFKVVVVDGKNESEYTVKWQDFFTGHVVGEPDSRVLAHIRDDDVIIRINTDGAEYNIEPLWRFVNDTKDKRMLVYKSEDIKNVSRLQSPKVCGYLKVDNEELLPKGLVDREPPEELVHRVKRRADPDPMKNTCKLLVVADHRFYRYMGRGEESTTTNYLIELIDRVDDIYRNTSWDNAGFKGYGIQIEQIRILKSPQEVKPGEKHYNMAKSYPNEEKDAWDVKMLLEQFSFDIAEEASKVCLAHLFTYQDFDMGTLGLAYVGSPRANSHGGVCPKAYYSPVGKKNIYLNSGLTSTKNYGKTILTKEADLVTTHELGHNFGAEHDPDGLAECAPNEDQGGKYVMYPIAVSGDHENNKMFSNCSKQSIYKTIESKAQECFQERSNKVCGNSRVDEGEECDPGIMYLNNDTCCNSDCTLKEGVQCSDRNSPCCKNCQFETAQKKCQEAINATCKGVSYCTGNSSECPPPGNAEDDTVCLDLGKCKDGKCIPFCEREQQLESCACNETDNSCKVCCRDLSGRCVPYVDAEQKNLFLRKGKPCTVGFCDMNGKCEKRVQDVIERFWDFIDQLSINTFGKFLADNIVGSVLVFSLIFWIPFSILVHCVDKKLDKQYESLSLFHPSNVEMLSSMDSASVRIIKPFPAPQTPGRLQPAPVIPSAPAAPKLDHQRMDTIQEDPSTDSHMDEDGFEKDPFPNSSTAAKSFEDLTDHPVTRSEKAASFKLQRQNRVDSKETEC
Sequence of Stromelysin-1 (P08254 whole entry): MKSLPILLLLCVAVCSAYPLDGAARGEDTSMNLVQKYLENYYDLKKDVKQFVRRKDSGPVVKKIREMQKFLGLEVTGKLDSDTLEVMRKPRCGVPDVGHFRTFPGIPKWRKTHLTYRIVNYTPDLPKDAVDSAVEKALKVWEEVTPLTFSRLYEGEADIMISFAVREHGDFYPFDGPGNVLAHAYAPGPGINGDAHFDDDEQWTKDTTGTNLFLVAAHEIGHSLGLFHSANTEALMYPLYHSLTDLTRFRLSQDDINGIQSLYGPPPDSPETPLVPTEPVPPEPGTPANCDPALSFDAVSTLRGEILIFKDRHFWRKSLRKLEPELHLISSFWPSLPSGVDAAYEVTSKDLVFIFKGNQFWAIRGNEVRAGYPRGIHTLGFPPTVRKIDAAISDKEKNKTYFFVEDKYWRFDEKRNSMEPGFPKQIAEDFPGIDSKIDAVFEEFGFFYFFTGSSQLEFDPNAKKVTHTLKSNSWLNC

Question: Which IC50 [1] does the source give for `CCO[P@@](=O)(c1ccc(OC)cc1)N1Cc2ccccc2C[C@@H]1C(=O)NO` here?
Answer: The IC50 was 230 nM.

Question: What about the Stability (Homo sapiens) of the same compound?
Answer: The Stability was 100%.

Question: What about the Ki (Stromelysin-1) of the same compound?
Answer: The Ki was 5.2 nM.

Question: And the Ki [2]?
Answer: The Ki was 5.05 nM.

Question: What about the Ki (Interstitial collagenase) of the same compound?
Answer: The Ki was 4.59 nM.

Question: What about the IC50 (Amphiregulin) of the same compound?
Answer: The IC50 was 350 nM.

Question: What does the source list for `COc1ccc([P@](=O)(OCC(F)(F)F)N2Cc3ccccc3C[C@@H]2C(=O)NO)cc1`?
Answer: IC50 [1]: 730 nM; Ki (Stromelysin-1): 6.75 nM; Ki [2]: 3.68 nM; Ki (Interstitial collagenase): 6.57 nM; IC50 (Amphiregulin): 950 nM

Question: Which results are given for `CCCCCCCCCCCCCC(=O)O[C@@H]1[C@@H](C)[C@]2(O)C3C=C(C)C(=O)[C@@]3(O)CC(CO)=C[C@H]2[C@@H]2C(C)(C)[C@]12OC(C)=O.COc1ccc([P@](=O)(OCC(F)F)N2Cc3ccccc3C[C@@H]2C(=O)NO)cc1` (stereo partly specified)?
Answer: Epidermal thickness (Mus musculus [3]): <39.7; Decrease (Mus musculus [4]): 57.7%

Question: What does the source list for `CCCCCCCCCCCCCC(=O)O[C@@H]1[C@@H](C)[C@]2(O)C3C=C(C)C(=O)[C@@]3(O)CC(CO)=C[C@H]2[C@@H]2C(C)(C)[C@]12OC(C)=O.CCO[P@@](=O)(c1ccc(OC)cc1)N1Cc2ccccc2C[C@@H]1C(=O)NO` (stereo partly specified)?
Answer: Epidermal thickness (Mus musculus [3]): <44.4; Decrease (Mus musculus [4]): 45.6%

Question: What does the source list for `CCCCCCCCCCCCCC(=O)O[C@@H]1[C@@H](C)[C@]2(O)C3C=C(C)C(=O)[C@@]3(O)CC(CO)=C[C@H]2[C@@H]2C(C)(C)[C@]12OC(C)=O.COc1ccc([P@](=O)(OCC(F)(F)F)N2Cc3ccccc3C[C@@H]2C(=O)NO)cc1` (stereo partly specified)?
Answer: Epidermal thickness (Mus musculus [3]): <30.5; Decrease (Mus musculus [4]): 81.3%

Question: `COc1ccc([P@](=O)(OCC(F)F)N2Cc3ccccc3C[C@@H]2C(=O)NO)cc1` was tested. Which IC50 [1] did it give?
Answer: Its IC50 is 510 nM.

Question: And the Ki (Stromelysin-1)?
Answer: Its Ki is 6.67 nM.

Question: And the Ki [2]?
Answer: Its Ki is 4.97 nM.

Question: What about the Ki (Interstitial collagenase) of the same compound?
Answer: Its Ki is 6 nM.

Question: And the IC50 (Amphiregulin)?
Answer: Its IC50 is 1470 nM.

Question: `CCO[P@](=O)(c1ccc(OC)cc1)N1Cc2ccccc2C[C@@H]1C(=O)NO` was tested. Which IC50 [1] did it give?
Answer: The IC50 was over 10000 nM.

Question: And the Ki [2]?
Answer: The Ki was over 800 nM.

Question: For `CCCCCCCCCCCCCC(=O)O[C@@H]1[C@@H](C)[C@@]2(O)[C@@H](C=C(CO)C[C@]3(O)C(=O)C(C)=C[C@@H]23)[C@@H]2C(C)(C)[C@]12OC(C)=O` [PHORBOL MYRISTATE ACETATE], which Epidermal thickness (Mus musculus [3]) is on record?
Answer: Its Epidermal thickness is 62.2.

Question: `COc1ccc(P(=O)(OC)N2Cc3ccccc3CC2C(=O)NO)cc1` (stereo unspecified) was tested. Which IC50 [1] did it give?
Answer: The IC50 was under 1000 nM.

Question: `O=C(NO)C1Cc2ccccc2CN1` (stereo unspecified) was tested. Which IC50 [1] did it give?
Answer: Its IC50 is over 10000 nM.

Question: What about the Ki (Stromelysin-1) of the same compound?
Answer: The Ki was over 650 nM.

Question: And the Ki [2]?
Answer: Its Ki is over 800 nM.

Question: How did the IC50 [1] turn out when `COc1ccc([P@](=O)(OCCC(F)(F)F)N2Cc3ccccc3C[C@@H]2C(=O)NO)cc1` was run?
Answer: Its IC50 is 310 nM.

Question: And the Stability (Homo sapiens)?
Answer: The Stability was 99%.

Question: What about the Ki (Stromelysin-1) of the same compound?
Answer: Its Ki is 3.33 nM.

Question: What about the Ki [2] of the same compound?
Answer: The Ki was 4.46 nM.

Question: What about the Ki (Interstitial collagenase) of the same compound?
Answer: The Ki was 2.21 nM.

Question: And the IC50 (Amphiregulin)?
Answer: The IC50 was 970 nM.

Question: How did the IC50 [1] turn out when `COc1ccc([P@](=O)(OCCF)N2Cc3ccccc3C[C@@H]2C(=O)NO)cc1` was run?
Answer: Its IC50 is 180 nM.

Question: What about the Stability (Homo sapiens) of the same compound?
Answer: Its Stability is 96%.

Question: And the Ki (Stromelysin-1)?
Answer: Its Ki is 9.07 nM.

Question: And the Ki [2]?
Answer: Its Ki is 10.5 nM.

Question: What about the Ki (Interstitial collagenase) of the same compound?
Answer: Its Ki is 10.5 nM.

Question: What about the IC50 (Amphiregulin) of the same compound?
Answer: The IC50 was 470 nM.
